{"source": "a melting point compilation (Tetko et al.; mined from patent text by program, amines drawn as free bases though some values may be those of a salt)"}
{"units": {"melting point": "°C"}}
{"smiles": "COc1ccc(CC2SC(=O)NC2=O)c2c1N(Cc1ccc(NC(=O)c3ccc4ccccc4c3)cc1)C(=O)CC2", "note": "(centres undefined)", "melting point": "202 to 208"}
{"smiles": "CN1CCC23c4c5ccc(OCCCCN)c4CC1C2C=CC(O)C3O5", "note": "(centres undefined)", "melting point": "140 to 142"}
{"smiles": "CCc1nc2c(N)nc3cc(OCC(=O)c4ccsc4)ccc3c2s1", "melting point": "202 to 203"}
{"smiles": "COc1ccc(-c2nc(C3=CCN(C)CC3)sc2-c2ccc(OC)cc2)cc1", "melting point": "131 to 132"}
{"smiles": "O=C(O)c1ccc(C=Cc2ccc(-c3cc4ccccc4o3)cc2)cc1", "melting point": "348 to 349"}
{"smiles": "O=C(O)c1c(I)c(I)c(C(=O)O)c(I)c1I", "melting point": "205 to 206"}
{"smiles": "Cc1nc(N)sc1S(=O)(=O)N(C)CCO", "melting point": 118}
{"smiles": "COc1ccc(C(=O)C(NC(=O)CCCCCBr)c2ccc(OC)cc2)cc1", "note": "(centres undefined)", "melting point": 93}
{"smiles": "O=C(/C=C/c1ccccc1)NCCC1CCN(Cc2ccccc2)CC1", "melting point": "125 to 127"}
{"smiles": "CCc1cc(NCc2ccc(-c3ccccc3C#N)cc2)n2ncc([N+](=O)[O-])c2n1", "melting point": "205 to 207"}
{"smiles": "CCOC(=O)C(N=C(c1cc(Cl)ccc1N)c1ccccc1F)C(=O)OCC", "melting point": 119}
{"smiles": "CCc1nc2c(N)nc3ccccc3c2n1CCS(C)(=O)=O", "melting point": "222 to 225"}
{"smiles": "CC(C)(C)Oc1ccc(CCC(=O)OCc2ccc([N+](=O)[O-])cc2)cc1", "melting point": "30 to 32"}
{"smiles": "COCC(O)CN1CCN(c2cc3c(cc2F)c(=O)c(C(=O)O)c2n3CCS2)CC1", "note": "(centres undefined)", "melting point": 224}
{"smiles": "O=S(CCCCCOc1ccc(C2=C(c3ccccc3)CCCc3cc(O)ccc32)cc1)CCCC(F)(F)F", "note": "(centres undefined)", "melting point": 145}
{"smiles": "O=[N+]([O-])c1c(-c2ccccc2)nn(CCCn2nc(-c3ccccc3)c([N+](=O)[O-])c2NCc2ccccc2)c1NCc1ccccc1", "melting point": "142 to 144"}
{"smiles": "C=CCOC(=O)CC(=O)CCN1C(=O)c2ccccc2C1=O", "melting point": "53 to 55"}
{"smiles": "CC(=O)c1c(C)c(NC(=O)OCC(Cl)(Cl)Cl)c(C)c2c1OCC2c1ccc(C(C)C)cc1", "note": "(centres undefined)", "melting point": "186 to 189"}
{"smiles": "Cc1[nH]n(Cc2ccc([N+](=O)[O-])cc2)c2nc(-c3ccncc3)nc(=O)c1-2", "melting point": "275 to 281"}
{"smiles": "O=C1NC(Cc2c[nH]c3ccccc23)C(=O)N1CCCN1CCOCC1", "note": "(centres undefined)", "melting point": "158 to 160"}
{"smiles": "COc1ccc2[nH]c(S(=O)(=O)c3ccc(=O)[nH]n3)cc2c1", "melting point": "> 250"}
{"smiles": "Nc1nc(-c2ccccc2)c(-c2ccnc(Nc3ccccc3)n2)s1", "melting point": "196 to 197"}
{"smiles": "CN(Cc1ccc2c(Br)c(O)ccc2c1)C(=O)c1cn(Cc2ccccc2)c2ccccc12", "melting point": "181 to 182"}
{"smiles": "Cc1cc(Cc2ccccc2)c(NC(=O)OCc2ccccc2)c(=O)n1CC(=O)O", "melting point": "158 to 160"}
{"smiles": "ClCCOc1ccc(CBr)cc1", "melting point": "64 to 66"}
{"smiles": "CC(C)(C)c1ccc(C(=O)Nc2cn3c(CO)cccc3n2)cc1", "melting point": "229 to 230"}
{"smiles": "COc1ccc2ccc(NC(=O)c3cccc(N(C)C)c3)nc2n1", "melting point": 130}
{"smiles": "Cc1ncncc1C(=O)Nc1cnc(-n2nc(C(F)(F)F)cc2C2CC2)nc1", "melting point": "201 to 203"}
{"smiles": "NC(=O)c1ccc(-c2cccc3cc(Cc4cc(F)cc(Cl)c4)sc23)cc1", "melting point": "202 to 203"}
{"smiles": "CCOC(=O)C[C@H](O)COC(c1ccccc1)(c1ccccc1)c1ccccc1", "melting point": "98.8 to 101"}
{"smiles": "CNC(=O)[C@@H]1CSCN1S(=O)(=O)c1ccc(Cl)c(COc2cccc3c(-n4ccnc4)cc(C)nc23)c1Cl", "melting point": 120}
{"smiles": "CCCN(CCC)CC1CCCCN1CCNC(=O)N1c2ccccc2NC(=O)c2cccnc21", "note": "(centres undefined)", "melting point": "149 to 151"}
{"smiles": "Cc1noc(-c2c(C)nc(C#Cc3ccccc3)n2C)n1", "melting point": 95}
{"smiles": "CCN(CC)c1ccc(C(c2ccc(N(C)C)cc2)c2ccc(N(C)C)cc2)c(O)c1", "melting point": "94 to 95"}
{"smiles": "COC(=O)Cc1cc(O)nn1C", "melting point": "147 to 148"}
{"smiles": "O=C(O)c1cccc(Oc2ncc(C(F)(F)F)cc2Cl)c1", "melting point": 158}
{"smiles": "CCS(=O)(=O)N(C(C)=O)c1cc(-c2ncnc(C(F)(F)F)c2Cl)c(F)cc1C#N", "melting point": "144 to 146"}
{"smiles": "COc1ccc(Sc2ccc([N+](=O)[O-])cc2[N+](=O)[O-])c(N)c1", "melting point": "169 to 172"}
{"smiles": "CN(C)Cc1ccc(CSCCNc2nc(N)n[nH]2)o1", "melting point": "76 to 78.5"}
{"smiles": "O=C(CO[C@H]1Cc2c(cccc2OCc2ccccc2)C[C@H]1OCC(=O)N1CCOCC1)N1CCOCC1", "note": "(relative stereo)", "melting point": "106 to 110"}
{"smiles": "CC(=O)OCC1OC(SC(c2ccccc2)(c2ccccc2)c2ccccc2)C(OC(C)=O)C(OC(C)=O)C1OC(C)=O", "note": "(centres undefined)", "melting point": "178 to 180"}
{"smiles": "COc1ccccc1C(=O)c1cc([N+](=O)[O-])ccc1SC", "melting point": "119 to 122"}
{"smiles": "CCCn1c(=O)c(N=O)c(N)n(CCc2ccc([N+](=O)[O-])cc2)c1=O", "melting point": "204 to 205"}
{"smiles": "CCC(=CC(CNC(=O)c1cccnc1)=NO)C(C(C)C)[N+](=O)[O-]", "note": "(centres undefined)", "melting point": "141 to 142"}
{"smiles": "CCn1ncc2nc(C(=O)Nc3nccs3)c(-c3ccccc3)nc21", "melting point": "194 to 196"}
{"smiles": "Cc1sc(-c2ccc(C(F)(F)F)cc2)nc1O", "melting point": "232 to 233"}
{"smiles": "CCn1c(-c2ccc(Cl)cc2)n[nH]c1=O", "melting point": "188 to 189"}
{"smiles": "O=C1CN(S(=O)(=O)CC(Cc2ccccc2)C(=O)O)CCN1", "note": "(centres undefined)", "melting point": "168 to 171"}
{"smiles": "O=C(Nc1ccc2[nH]c(=O)oc2c1)C(=O)N1CCC(Cc2ccc(O)cc2)CC1", "melting point": "235 to 239"}
{"smiles": "C=CCC(C(=O)O)(c1ccccc1)c1ccccc1", "melting point": "134 to 137"}
{"smiles": "COC(=O)c1cc2cc(OC)c(OCCCl)cc2[nH]1", "melting point": "164 to 166"}
{"smiles": "COc1ccc(OC)c(Cc2ccc3nc(N)nc(N)c3c2)c1", "melting point": "190 to 192"}
{"smiles": "CCNC(=O)c1ccc(N2CCN(Cc3cc4c(c(OC(F)F)c3)OC(C)C(=O)N4)CC2)c(Cl)c1", "note": "(centres undefined)", "melting point": "102 to 104"}
{"smiles": "CCc1ccc(N2CCN(c3c(C)c4c(c(OC)c3C)OC(C)(C)C4)CC2)cc1", "melting point": "157 to 160"}
{"smiles": "CC(C(=O)NCC(F)(F)C(F)(F)F)C(=O)NC1C(=O)Nc2cc(F)ccc2OC1C", "note": "(centres undefined)", "melting point": "215 to 216"}
{"smiles": "COc1cc(-n2nc(C#N)cc2-c2ccc(S(C)(=O)=O)cc2)ccc1F", "melting point": "169 to 171"}
{"smiles": "CC(C)c1nc(CCOCc2ccccc2)n(C)c1Sc1cc(Cl)cc(Cl)c1", "melting point": "101 to 103"}
{"smiles": "CC1N=Cc2cc(Cl)ccc2-n2c(Cc3ccccc3)nnc21", "note": "(centres undefined)", "melting point": "195 to 197"}
{"smiles": "CCCN(CCC)c1c([N+](=O)[O-])cc(C)c(C)c1[N+](=O)[O-]", "melting point": "42 to 43.5"}
{"smiles": "O=C(NCc1ccccn1)Nc1cc(-n2c(=O)oc3ccccc32)ccn1", "melting point": "237 to 238"}
{"smiles": "CCCCOc1c(CO)n(CC(C)(C)C)c(=O)c2cc(F)ccc12", "melting point": "149 to 150"}
{"smiles": "Cc1nnc2ccc(-c3ccc(C(F)(F)F)cc3)nn12", "melting point": "199 to 201"}
{"smiles": "CN1C(=O)CC[C@]2(C)c3ccc(-c4ccccc4C#N)cc3CC[C@@H]12", "melting point": "54 to 55"}
{"smiles": "Nc1ccccc1Oc1cccc2c1NC(=O)C2", "melting point": "210 to 212"}
{"smiles": "CC(=O)Oc1cccc(C(=O)N[C@@H](Cc2ccccc2)[C@H](O)C(=O)O)c1C", "melting point": "189 to 191"}
{"smiles": "N#Cc1c(N2CCc3ccccc3CC2)nc(N)n(N)c1=O", "melting point": "> 200"}
{"smiles": "C=CCN1C(=O)C2CC(c3ccc(N)cc3)(C2)C1=O", "melting point": "176 to 178"}
{"smiles": "COc1cc(CCCCC#CCCCC#CCO)c(O)c2ccccc12", "melting point": "85 to 87"}
{"smiles": "COc1ccc(C(=O)c2ccccc2[N+](=O)[O-])cn1", "melting point": "94 to 95"}
